In PMC5050390, “Transport of Corilagin, Gallic Acid, and Ellagic Acid from Fructus Phyllanthi Tannin Fraction in Caco-2 Cell Monolayers” (Evidence-based Complementary and Alternative Medicine : eCAM, 2016):

Key:
[1] = Transport of PTF constituents across Caco-2 cell monolayers (LC-MS quantification); assay type: in vitro ADME, human; set-up: efflux ratio at 180 min / Papp A→B at 180 min: dose or concentration left out as unconfirmed; conditions: human, Caco-2, 180 min; for efflux ratio at 180 min: read-out: PDR (ratio of P app BL→AP to P app AP→BL)
Method: (§1) When cells were cultured to 80% confluence, they were seeded in 12-well Transwell-Clear plates at a density of 1.2 × 10^5 cells/insert. Cells were cultured for 21 days to reach confluence and functional differentiation. Complete medium was replaced every 2 days for the first 2 weeks and daily renewed for the last 7 days. All cells were between passages 35 and 55. […] After 21-day culture, the complete medium was removed and the monolayer was washed three times and balanced with HBSS (previously warmed to 37°C) for 30 min. […] […] All samples were dried with organomation. Before analyzing, the dry samples were dissolved in methanol/water/acetic acid (200 : 200 : 1, v/v/v) and the insoluble substance was eliminated with centrifugation 12000 rpm for 5 min. Protein inhibitors including verapamil (100 μM), indomethacin (10 μM), and phloridzin (50 μM) were employed to investigate the role of different transporters. Epithelial tight junction modulators such as SDS (50 μg/mL) and PLL (50 μg/mL) were used to evaluate the role of paracellular permeability. Hydrophilic marker sodium fluorescein (0.6 mg/mL) was used for the evaluation of the integrity of the cell monolayer. […] The column temperature was 20°C and the injection volume was 20 μL. MS/MS analysis was acquired using an Agilent 6410 triple quadrupole mass spectrometer (Agilent Technologies, CA, USA) equipped with an electrospray ionisation (ESI) in the negative mode. Other analytical conditions included the drying gas temperature of 300°C, the drying gas flow of 11 L/min, the nebulizer pressure of 35 psi, and the capillary voltage of 4 kV. To get the highest abundance, the fragmentor voltage and collision energy were optimized. Data acquisition and processing were accepted by Agilent Mass Hunter workstation software version B.05.00 using multiple reaction monitoring (MRM). The quantification was performed using external standard method. […] Here, dC/dt is the change in concentration on the receiver side over time; V is the volume of the solution in the receiver chamber; A is the surface area of the cell monolayer; C 0 is the initial concentration in the donor chamber. PDR is the ratio of P app(BL→AP) to P app(AP→BL).

Caco-2 cell monolayers = test: as above; assay type: in vitro ADME, human; set-up: efflux ratio at 180 min / Papp A→B at 180 min: dose or concentration left out as unconfirmed; conditions: for change of transport with tight junction modulators SDS and PLL: SDS and PLL 50 μg/mL; for PDR (ratio of P app BL→AP to P app AP→BL): compound in PTF 1.00 mg/mL; for change of transport (P app) in presence of indomethacin: indomethacin 10 μM (MRPs/OATP inhibitor); for change of transport (P app) in presence of indomethacin / change of transport (P app) in presence of phloridzin / change of transport (P app) in presence of verapamil: PTF 1.00 mg/mL, 120 min; for change of transport (P app) in presence of phloridzin: phloridzin 50 μM (SGLT1 inhibitor); for change of transport (P app) in presence of verapamil: verapamil 100 μM (P-gp inhibitor)
Method: as §1

[2] = set-up: method as in earlier work; conditions: rats, oral PTF 6 g/kg; cited from earlier work
Caco-2 cell monolayer = test system: Caco-2 cell monolayer; set-up: method as in PMID 14646189; conditions: pure compound; cited from earlier work
[3] = compound in PTF 1.00 mg/mL, mean ± SEM (n = 3)

SMILES	efflux ratio at 180 min [1]	Papp A→B at 180 min, 1 mg/mL [1, 3] [×10⁻⁶ cm/s]	Papp B→A at 180 min [1, 3] [×10⁻⁶ cm/s]	change of transport with tight junction modulators SDS and PLL (Caco-2 cell monolayers)	PDR (ratio of P app BL→AP to P app AP→BL) (Caco-2 cell monolayers; 180 min)	secretion transport P app (BL→AP) (Caco-2 cell monolayers; human, Caco-2, 180 min)	change of transport (P app) in presence of indomethacin (Caco-2 cell monolayers)	change of transport (P app) in presence of phloridzin (Caco-2 cell monolayers)	change of transport (P app) in presence of verapamil (Caco-2 cell monolayers)	peak concentration (C max) [2]	Papp A→B at 180 min ([1]; mean ± SEM (n = 3)) [×10⁻⁶ cm/s]	absorption transport P app (AP→BL) (Caco-2 cell monolayers; compound in PTF)	secretion transport P app (BL→AP) (Caco-2 cell monolayers; compound in PTF)	P app of GA across Caco-2 cell monolayer (Caco-2 cell monolayer)	P app of marker across the monolayers (Caco-2 cell monolayers; sodium fluorescein 0.6 mg/mL, monolayer integrity check)
O=C(O[C@@H]1O[C@@H]2COC(=O)c3cc(O)c(O)c(O)c3-c3c(cc(O)c(O)c3O)C(=O)O[C@H]([C@H]1O)[C@@H]2O)c1cc(O)c(O)c(O)c1 [Corilagin]	12.5	0.174 ± 0.019	2.18 ± 0.228	greatly improved	more than 1.5	~10^−6 cm/s	significantly increased	no considerable change	significantly increased	lower than 10.47 μg/mL	–	–	–	–	–
O=c1oc2c(O)c(O)cc3c(=O)oc4c(O)c(O)cc1c4c23 [Ellagic acid]	1.31	–	0.456 ± 0.01	greatly improved	less than 1.5	–	strongly decreased	strongly decreased	no substantial difference	lower than 10.47 μg/mL	0.347 ± 0.018	~10^−7 cm/s	~10^−7 cm/s	–	–
O=C(O)c1cc(O)c(O)c(O)c1 [Gallic acid]	4.17	–	0.1 ± 0.009	greatly improved	more than 1.5	–	significantly increased	no considerable change	significantly increased	lower than 10.47 μg/mL	0.024 ± 0.004	–	~10^−7 cm/s	about 0.20 × 10^−6 cm/s	–
O=C([O-])c1ccccc1-c1c2ccc(=O)cc-2oc2cc([O-])ccc12.[Na+].[Na+] [sodium fluorescein, reference compound]	–	–	–	–	–	–	–	–	–	–	–	–	–	–	3.16 ± 0.25 × 10^−7 cm/s
